Assay results reported in patent USRE46228E1, “Pigmentation-regulating compounds” (LIPOTEC, S.A., priority 2007, dated 2016).

Columns and labels:
[1] = target: T1, endogenous tyrosinase extracted from human melanocytes (Homo sapiens, UniProt P14679); assay: Activity assay on endogenous tyrosinase extracted from human melanocytes (L-Dopa substrate, absorbance 475 nm); format: biochemical; conditions: 1 mM compound; 30 min incubation with enzyme; one hour after adding L-Dopa; relative to control (100)
T1 construct: The endogenous tyrosine of the human melanocytes seeded at a confluence of 95% is extracted; endogenous in cells; host or cells: human melanocytes (cultured; extract used)
T1 sequence (P14679 19-529): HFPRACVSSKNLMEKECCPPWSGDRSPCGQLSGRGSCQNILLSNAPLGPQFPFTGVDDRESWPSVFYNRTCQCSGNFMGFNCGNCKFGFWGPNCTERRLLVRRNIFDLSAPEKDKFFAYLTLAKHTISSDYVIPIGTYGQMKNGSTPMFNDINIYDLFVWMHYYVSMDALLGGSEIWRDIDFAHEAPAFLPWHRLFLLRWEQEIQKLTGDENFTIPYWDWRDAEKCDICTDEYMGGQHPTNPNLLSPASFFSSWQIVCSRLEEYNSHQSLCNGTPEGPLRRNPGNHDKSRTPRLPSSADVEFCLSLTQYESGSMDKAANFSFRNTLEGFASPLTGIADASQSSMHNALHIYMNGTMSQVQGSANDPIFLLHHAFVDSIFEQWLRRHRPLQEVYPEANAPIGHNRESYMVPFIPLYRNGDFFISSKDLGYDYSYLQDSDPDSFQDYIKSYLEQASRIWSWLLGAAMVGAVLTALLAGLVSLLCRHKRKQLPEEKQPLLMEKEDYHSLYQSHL
Procedure: The human melanocytes are cultured in DMEM medium supplemented with 10% FBS, 1% penicillin/streptomycin and 100 nM PMA. […] The endogenous […] of the human melanocytes seeded at a confluence of 95% is extracted. The assay is performed after extracting and quantifying the enzymatic content. […] To check the enzymatic activity after the treatment, the synthetic L-Dopa (10 mM) substrate is added, measuring absorbance at a wavelength of 475 nm one hour after having added L-Dopa. This measurement allows evaluating the melanin content produced.

human melanocytes = assay: Depigmenting efficacy in human melanocyte cultures (microscopy count of melanin-containing cells); format: cell-based; conditions: 0.1 mM compound, 5 days, fresh medium daily; normalized to control sample (0)
Procedure: The melanin content was is seen directly by means of microscopy using a 40 magnification lens. The depigmenting efficacy was is determined by counting the number of cells containing melanin and the total number of cells, and the obtained results were are normalized in relation to the whitening efficacy of a control sample.

human keratinocytes = assay: Photoprotecting efficacy in human keratinocyte cultures (solar simulation irradiation, Neutral Red viability); format: cell-based; conditions: 150 μg/mL
Procedure: The human keratinocytes were maintained in culture for 24 hours in 96 well plates to form monolayers and the cells were pre-incubated in the dark with 150 μg/mL of 7-methoxy-6-palmitoyl-2,2-dimethylchromane or saline phosphate buffer (control) for one hour at 37° C. and humidified air with 5% CO2. The cells were then irradiated with a solar simulation lamp with an energy of 37 J/cm^2 at room temperature for 150 minutes. A control plate was maintained in the dark for the same time at room temperature. The medium of the cells was replaced after the irradiation period with fresh medium and the cells were incubated for 24 additional hours. The cell viability was determined by means of the Neutral Red dye, measuring the optical density at 540 nm in a spectrophotometer.
The photoprotecting efficacy was determined by comparing the viability obtained in the cells treated with 7-methoxy-6-palmitoyl-2,2-dimethylchromane in relation to the response of the irradiated and non-irradiated control cells.

mushroom tyrosinase = assay: Activity assay on the action of mushroom tyrosinase in vitro (L-Dopa substrate, melanin read at 492 nm); format: biochemical; conditions: melanin formed normalized to control sample (100), 10 min at 37° C.
Procedure: The assay is performed in 96 well plates and the samples are performed in triplicate. The control sample contains 80 μL of buffer (150 mM HEPES), 10 μL of mushroom tyrosinase of 10 μg/μL and 10 μL of 10 mM L-Dopa substrate. […] The samples thus prepared are incubated at 37° C. for 10 minutes. Then the plate containing the samples is cooled for 5 minutes on ice to stop the enzymatic reaction. To quantify the melanin produced it is measured in the plate reader at a length of 492 nm.

Structure (SMILES): CCCCCCCCCCCCCCCC(=O)c1cc2c(cc1OC)OC(C)(C)CC2 [7-methoxy-6-palmitoyl-2,2-dimethylchromane]
- % MELANIN [1]: 57.0%
- % DEPIGMENTING EFFICACY (human melanocytes): 45.9%
- PHOTOPROTECTTNG EFFICACY (human keratinocytes; viability of treated cells compared with irradiated and non-irradiated control cells): 254.9%
- viability at 150 µg/mL (human keratinocytes; Homo sapiens, Keratinocyte, light or radiation study, 1 h pre-incubation, irradiated 37 J/cm^2 for 150 min, 24 h later, non-irradiated control 100%, irradiated control 13.8%, read-out: CELL VIABILITY): 49.1%
- % MELANIN (mushroom tyrosinase; 1 mM compound): 63.0%

Structure (SMILES): COc1cc2c(cc1O)CCC(C)(C)O2 [Lipochroman-6, 6-hydroxy-7-methoxy-2,2-dimethylchromane, reference compound]
- % MELANIN [1]: 79.8%
- % MELANIN (mushroom tyrosinase; 1 mM compound): 96.6%

Structure (SMILES): O=c1cc(CO)occ1O [Kojic acid, reference compound]
- % DEPIGMENTING EFFICACY (human melanocytes): 30.2%
- % MELANIN (mushroom tyrosinase; 0.1 mM compound): 44.5%
